Measured values taken from ChEMBL document CHEMBL5260852, “Long-Acting Tumor-Activated Prodrug of a TGFβR Inhibitor” (J Med Chem, 2021).
Activity calls are given as the source filed them. No cut-off for these calls is given here. Numbered stars: 1 amine (or outer) side, 2 acyl side, 3 side chain; on linkers, the order of the positions; unused ones are H or OH. Square brackets hold non-standard residues; d marks the D form. Peptide text beside a SMILES is read from it. * marks the point of attachment. X1 = N#Cc1cnc2ccc(-c3c(-c4ccc(F)c(Cl)c4)ncn3CCOCN*)nn12; C18 diacid = O=C(O)CCCCCCCCCCCCCCCCC(=O)*; γGlu = O=C(O)[C@H](CCC(=O)[*:2])N[*:1]; PABC = O=C(OCc1ccc(N[*:1])cc1)[*:2]; AEEA = NCCOCCOCC(=O)O

Tests used:
[1] = AUC in C57BL/6 mouse plasma at 6 mg/kg,iv and measured upto 24 hrs by LC-MS/MS analysis; type: ADME, organism-based; set-up: dose 6 mg/kg, time < 24 hrs, route iv
[2] = Drug concentration in C57BL/6 mouse plasma at 6 mg/kg,iv and measured after 24 hrs by LC-MS/MS analysis; type: ADME, organism-based
[3] = AUC (0 to 72 hrs) in rat at 40 mg/kg,iv for 3 months; type: ADME, organism-based; set-up: time 3 months, dose 40 mg/kg, route iv; details: in vivo
[4] = Prodrug conversion in C57BL/6 mouse xenografted mouse MC38 cells assessed as BMS-986260 ratio of AUC in heart to blood at 8 mg/kg,iv and measured after 72 hrs by LC-MS/MS analysis; type: ADME, organism-based, MC-38; details: other tissue
[5] = Toxicity in rat assessed as mortality at 3 mg/kg,iv for 3 months; type: organism-based; details: in vivo, 2190 h
[6] = Prodrug conversion in tumor of C57BL/6 mouse xenografted mouse MC38 cells assessed as BMS-986260 Tmax at 8 mg/kg,iv and measured after 72 hrs by LC-MS/MS analysis; type: ADME, organism-based, Neoplasm, MC-38; details: in vivo
[7] = AUC (0 to 24 hrs) in rat at 3 mg/kg,iv for 3 months; type: ADME, organism-based; set-up: time 3 months, dose 3 mg/kg, route iv; details: in vivo
[8] = Prodrug conversion in heart of C57BL/6 mouse xenografted mouse MC38 cells assessed as BMS-986260 Cmax at 8 mg/kg,iv and measured after 72 hrs by LC-MS/MS analysis; type: ADME, organism-based, MC-38; set-up: dose 8 mg/kg, time 72 hrs, route iv; details: in vivo
[9] = Stability in rat plasma assessed as parent compound remaining after 24 hrs by HPLC-MS analysis; type: ADME, cell-free; details: read-out: Stability
[10] = Prodrug conversion in blood of C57BL/6 mouse xenografted mouse MC38 cells assessed as BMS-986260 AUC (0 to 72 hrs) at 8 mg/kg,iv and measured after 72 hrs by LC-MS/MS analysis; type: ADME, organism-based, MC-38; set-up: time 72 hrs, dose 8 mg/kg, route iv; details: in vivo
[11] = Prodrug conversion in blood of C57BL/6 mouse xenografted mouse MC38 cells assessed as BMS-986260 Tmax at 8 mg/kg,iv and measured after 72 hrs by LC-MS/MS analysis; type: ADME, organism-based, MC-38; details: in vivo
[12] = Prodrug conversion in tumor of C57BL/6 mouse xenografted mouse MC38 cells assessed as BMS-986260 Cmax at 8 mg/kg,iv and measured after 72 hrs by LC-MS/MS analysis; type: ADME, organism-based, Neoplasm, MC-38; set-up: dose 8 mg/kg, time 72 hrs, route iv; details: in vivo
[13] = Toxicity in C57BL/6 mouse at 80 mg/kg,iv; type: organism-based; details: in vivo
[14] = AUC (0 to 72 hrs) in rat at 3 mg/kg,iv for 3 months; type: ADME, organism-based; set-up: dose 3 mg/kg, time 3 months, route iv; details: in vivo
[15] = Prodrug conversion in blood of C57BL/6 mouse xenografted mouse MC38 cells assessed as BMS-986260 ratio of AUC in tumor to blood at 8 mg/kg,iv and measured after 72 hrs by LC-MS/MS analysis; type: ADME, organism-based, MC-38; details: tumour
[16] = Prodrug conversion in blood of C57BL/6 mouse xenografted mouse MC38 cells assessed as BMS-986260 Cmax at 8 mg/kg,iv and measured after 72 hrs by LC-MS/MS analysis; type: ADME, organism-based, MC-38; set-up: dose 8 mg/kg, time 72 hrs, route iv; details: in vivo
[17] = Prodrug conversion in tumor of C57BL/6 mouse xenografted mouse MC38 cells assessed as BMS-986260 AUC (0 to 72 hrs) at 8 mg/kg,iv and measured after 72 hrs by LC-MS/MS analysis; type: ADME, organism-based, Neoplasm, MC-38; set-up: time 72 hrs, dose 8 mg/kg, route iv; details: in vivo
[18] = Prodrug conversion in blood of C57BL/6 mouse xenografted mouse MC38 cells assessed as BMS-986260 ratio of AUC in tumor to heart at 8 mg/kg,iv and measured after 72 hrs by LC-MS/MS analysis; type: ADME, organism-based, MC-38; details: in vivo
[19] = Prodrug conversion in heart of C57BL/6 mouse xenografted mouse MC38 cells assessed as BMS-986260 Tmax at 8 mg/kg,iv and measured after 72 hrs by LC-MS/MS analysis; type: ADME, organism-based, MC-38; details: in vivo
[20] = Stability in mouse plasma assessed as parent compound remaining after 24 hrs by HPLC-MS analysis; type: ADME, cell-free; details: read-out: Stability
MC-38 = experiment: Antitumor activity against mouse MC38 cells allografted in C57BL/6 mouse assessed as reduction in tumor volume at 40 to 80 mg/kg, iv for 4 weeks in presence of anti-PD-1 antibody; type: functional, organism-based; details: dose 40-80 mg/kg
[21] = Prodrug conversion in heart of C57BL/6 mouse xenografted mouse MC38 cells assessed as BMS-986260 AUC (0 to 72 hrs) at 8 mg/kg,iv and measured after 72 hrs by LC-MS/MS analysis; type: ADME, organism-based, MC-38; set-up: time 72 hrs, dose 8 mg/kg, route iv; details: in vivo

For CC(C)C[C@H](NC(=O)COCCOCCNC(=O)COCCOCCNC(=O)CC[C@H](NC(=O)CC[C@H](NC(=O)CCCCCCCCCCCCCCCCC(=O)O)C(=O)O)C(=O)O)C(=O)N[C@@H](CO)C(=O)NCC(=O)N[C@@H](CCCCN)C(=O)Nc1ccc(COC(=O)NCOCCn2cnc(-c3ccc(F)c(Cl)c3)c2-c2ccc3ncc(C#N)n3n2)cc1 ({C18 diacid-γGlu-γGlu-AEEA-AEEA}-LSGK[PABC]-X1), the AUC at 24 h [1] was 270 µM·h, the concentration at 24 h [2] was 5200 nM and the AUC(0-t) at 2190 h [3] was 81 µM·h. For the same compound, the “Ratio AUC” value [4] was 1.7, the Activity [5] was “Non-Toxic” and the Tmax [6] was 1 h. It also gave an AUC(0-t) at 2190 h [7] of 27 µM·h, a Cmax [8] of 200 nM and a remaining at 24 h [9] of 87%. It also gave an AUC [10] of 3.9 µM·h, a Tmax [11] of 1 h and a Cmax [12] of 310 nM. For the same compound, the Activity [13] was “Non-Toxic”, the AUC(0-t) at 2190 h [14] was 15 µM·h and the “Ratio AUC” value [15] was 3.1. The Cmax [16] was 120 nM, the AUC [17] was 12 µM·h and the “Ratio AUC” value [18] was 1.8. For the same compound, the Tmax [19] was 8 h, the remaining at 24 h [20] was 92% and the Activity (MC-38) was “Active”. It also gave an AUC [21] of 6.7 µM·h.
